ChEMBL document CHEMBL5518186, “Discovery of the cereblon-recruiting tubulin PROTACs effective in overcoming Taxol resistance in vitro and in vivo” (Eur J Med Chem, 2024)
Active and inactive are the calls of the source. The rule behind the calls is not given here.

What was measured:
[1] = target: T1, Protein cereblon-alpha tubulin (Homo sapiens) (UniProt P0DPH7+P68366+Q71U36+P68363+Q9BQE3+Q6PEY2+A6NHL2+Q9NY65+Q96SW2); assay: (§1) Protac activity at CRBN/alpha-tubulin in human A549 cells assessed as reduction in alpha-tubulin level incubated for 48 hrs by immunoblotting analysis; assay type: cell-based
[2] = target: Protein cereblon-alpha tubulin; assay: as §1; assay type: cell-based
[3] = tested on: A549; assay: Induction of cell cycle arrest in human A549 cells assessed as accumulation of cells at G0/G1 phase at 0.05 uM incubated for 24 hrs by PI staining based flow cytometry analysis (reference value: 66.75%); assay type: functional
[4] = target: T2, Protein cereblon/Tubulin beta (Homo sapiens) (UniProt P68371+Q9H4B7+Q13509+P04350+Q3ZCM7+P07437+Q13885+Q9BVA1+Q9BUF5+Q96SW2+A6NNZ2); assay: Protac activity at CRBN/beta-tubulin in human HeLa cells assessed as reduction in beta-tubulin level at 10 to 1000 nM incubated for 48 hrs by immunoblotting analysis; assay type: cell-based; settings: dose 10-1000 nM
[5] = tested on: A549; assay: Induction of cell cycle arrest in human A549 cells assessed as accumulation of cells at G0/G1 phase at 0.01 uM incubated for 24 hrs by PI staining based flow cytometry analysis (reference value: 66.75%); assay type: functional
[6] = target: T2, Protein cereblon/Tubulin beta (Homo sapiens); assay: Protac activity at CRBN/beta-tubulin in human A549/Taxol cells assessed as reduction in beta-tubulin level at 0.25 uM pretreated with pomalidomide for 2 hrs followed by compound addition and measured after 48 hrs by immunoblotting analysis; assay type: cell-based
[7] = target: T1, Protein cereblon-alpha tubulin (Homo sapiens); assay: Protac activity at CRBN/alpha-tubulin in human A549 cells assessed as reduction in alpha-tubulin level at 0.25 uM pretreated for 48 hrs followed by compound washout and measured upto 24 hrs by immunoblotting analysis; assay type: cell-based
[8] = target: T2, Protein cereblon/Tubulin beta (Homo sapiens); assay: Protac activity at CRBN/beta-tubulin in human A549 cells assessed as reduction in beta-tubulin level at 0.25 uM pretreated with pomalidomide for 2 hrs followed by compound addition and measured after 24 hrs by immunoblotting analysis; assay type: cell-based
[9] = tested on: HepG2; assay: Antiproliferative activity against human HepG2 cells incubated for 72 hrs; assay type: functional, cell-based; settings: HepG2, 72 h
[10] = tested on: HepG2; assay: Induction of apoptosis in human HepG2 cells; assay type: functional, cell-based
[11] = target: T2, Protein cereblon/Tubulin beta (Homo sapiens); assay: Protac activity at CRBN/beta-tubulin in human A549 cells assessed as reduction in beta-tubulin level at 0.01 to 1 uM incubated for 48 hrs by immunoblotting analysis; assay type: cell-based; settings: dose 0.01-1 µM
[12] = tested on: A549; assay: Induction of cell cycle arrest in human A549 cells assessed as accumulation of cells at G2/M phase at 0.002 uM incubated for 24 hrs by PI staining based flow cytometry analysis (reference value: 31.86%); assay type: functional
[13] = target: T3, Protein cereblon/Tubulin beta-3 chain (Homo sapiens, UniProt Q13509+Q96SW2); assay: Protac activity at CRBN/beta3-tubulin in human A549 cells assessed as reduction in beta3-tubulin level at 0.25 uM after 72 hrs by immunoblotting analysis; assay type: cell-based
Target sequence in this assay (Q13509 whole entry, looked up): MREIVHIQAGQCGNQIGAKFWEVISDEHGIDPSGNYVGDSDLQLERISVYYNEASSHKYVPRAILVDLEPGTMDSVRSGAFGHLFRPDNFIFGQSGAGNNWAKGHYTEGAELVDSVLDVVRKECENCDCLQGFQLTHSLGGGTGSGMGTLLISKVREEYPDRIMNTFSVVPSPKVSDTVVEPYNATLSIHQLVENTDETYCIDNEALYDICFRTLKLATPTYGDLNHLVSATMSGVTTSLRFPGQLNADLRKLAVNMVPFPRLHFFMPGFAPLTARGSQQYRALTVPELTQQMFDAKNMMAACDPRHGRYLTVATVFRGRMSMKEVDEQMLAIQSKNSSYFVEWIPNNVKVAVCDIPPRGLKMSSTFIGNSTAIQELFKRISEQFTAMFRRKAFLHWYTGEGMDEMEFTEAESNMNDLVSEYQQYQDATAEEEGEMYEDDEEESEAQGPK
Target sequence in this assay (Q96SW2 whole entry, looked up): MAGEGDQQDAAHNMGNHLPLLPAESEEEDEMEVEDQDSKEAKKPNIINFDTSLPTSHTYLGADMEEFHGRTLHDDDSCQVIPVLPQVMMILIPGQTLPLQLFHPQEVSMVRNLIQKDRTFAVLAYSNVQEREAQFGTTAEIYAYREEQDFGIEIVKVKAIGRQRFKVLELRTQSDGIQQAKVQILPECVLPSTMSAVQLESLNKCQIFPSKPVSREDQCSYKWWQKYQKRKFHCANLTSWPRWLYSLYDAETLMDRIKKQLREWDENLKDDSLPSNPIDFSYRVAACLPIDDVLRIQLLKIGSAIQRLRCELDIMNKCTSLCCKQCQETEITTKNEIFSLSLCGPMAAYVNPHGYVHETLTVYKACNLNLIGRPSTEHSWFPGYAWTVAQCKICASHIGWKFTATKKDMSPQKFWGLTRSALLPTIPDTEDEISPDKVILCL

[14] = target: T1, Protein cereblon-alpha tubulin (Homo sapiens); assay: Protac activity at CRBN/alpha-tubulin in human MGC-803 cells assessed as reduction in alpha-tubulin level at 10 to 1000 nM incubated for 48 hrs by immunoblotting analysis; assay type: cell-based; settings: dose 10-1000 nM
[15] = target: Tubulin (Homo sapiens) (UniProt P68371+Q9H4B7+P0DPH7+P68366+Q13509+Q71U36+P04350+Q3ZCM7+P07437+P68363+Q9BQE3+Q6PEY2+Q13885+Q9BVA1+Q9BUF5); assay: Inhibition of microtubule polymerization in human HepG2 cells by immunofluorescence assay; assay type: cell-based
[16] = tested on: HepG2; assay: Induction of intracellular ROS generation in human HepG2 cells; assay type: functional, cell-based
[17] = tested on: HepG2; assay: Induction of cell cycle arrest in human HepG2 cells assessed as G2/M phase arrest; assay type: functional, cell-based
[18] = Inhibition of cell growth in human MCF7/Taxol cells incubated for 72 hrs by SRB method; assay type: functional, cell-based
[19] = target: T3, Protein cereblon/Tubulin beta-3 chain; assay: Protac activity at CRBN/beta3-tubulin in human A549 cells assessed as reduction in beta3-tubulin level at 0.25 uM by immunoblotting analysis; assay type: cell-based; settings: time 6-72 hrs, TDE = time-dependent effect
Target sequence in this assay (Q13509 whole entry, looked up): as the sequence (Q13509 whole entry, looked up) above
Target sequence in this assay (Q96SW2 whole entry, looked up): as the sequence (Q96SW2 whole entry, looked up) above

[20] = target: T3, Protein cereblon/Tubulin beta-3 chain; assay: Protac activity at CRBN/beta3-tubulin in human A549 cells assessed as reduction in beta3-tubulin level at 0.25 uM pretreated with pomalidomide for 2 hrs followed by compound addition and measured after 24 hrs by immunoblotting analysis; assay type: cell-based
Target sequence in this assay (Q13509 whole entry, looked up): as the sequence (Q13509 whole entry, looked up) above
Target sequence in this assay (Q96SW2 whole entry, looked up): as the sequence (Q96SW2 whole entry, looked up) above

[21] = tested on: A549; assay: Antitumor activity against human A549 cells xenografted in nude mouse assessed as decrease in tumor volume at 15 mg/kg, ip administered once every 2 days for 23 days by Vernier caliper method; assay type: functional, organism-based; settings: time 23.0 day
[22] = target: T3, Protein cereblon/Tubulin beta-3 chain; assay: Protac activity at CRBN/beta3-tubulin in human MCF7 cells assessed as reduction in beta3-tubulin level at 10 to 1000 nM incubated for 48 hrs by immunoblotting analysis; assay type: cell-based; settings: dose 10-1000 nM
Target sequence in this assay (Q13509 whole entry, looked up): as the sequence (Q13509 whole entry, looked up) above
Target sequence in this assay (Q96SW2 whole entry, looked up): as the sequence (Q96SW2 whole entry, looked up) above

[23] = tested on: A549/TR; assay: Induction of cell cycle arrest in human A549/Taxol cells assessed as accumulation of cells at G0/G1 phase at 0.002 uM incubated for 24 hrs by PI staining based flow cytometry analysis (reference value: 77.86%); assay type: functional
[24] = tested on: A549; assay: Induction of cell cycle arrest in human A549 cells assessed as accumulation of cells at G2/M phase at 0.01 uM incubated for 24 hrs by PI staining based flow cytometry analysis (reference value: 31.86%); assay type: functional
[25] = tested on: A549/TR; assay: Antitumor activity against human A549/Taxol cells xenografted in nude mouse assessed as tumor growth inhibition at 15 mg/kg, ip administered once every 2 days for 23 days by Vernier caliper method; assay type: functional; settings: 552 h, time 23 day, read-out: TGI
[26] = target: T3, Protein cereblon/Tubulin beta-3 chain; assay: Protac activity at CRBN/beta3-tubulin in human A549/Taxol cells assessed as reduction in beta3-tubulin level incubated for 48 hrs by immunoblotting analysis; assay type: cell-based
[27] = tested on: A549/TR; assay: Induction of cell cycle arrest in human A549/Taxol cells assessed as accumulation of cells at G2/M phase at 0.05 uM incubated for 24 hrs by PI staining based flow cytometry analysis (reference value: 17.02%); assay type: functional
[28] = tested on: HepG2; assay: Inhibition of DNA synthesis in human HepG2 cells; assay type: functional, cell-based
[29] = target: Protein cereblon/Tubulin beta; assay: (§2) Protac activity at CRBN/beta-tubulin in human A549/Taxol cells assessed as reduction in beta-tubulin level incubated for 48 hrs by immunoblotting analysis; assay type: cell-based
[30] = target: T2, Protein cereblon/Tubulin beta (Homo sapiens); assay: as §2; assay type: cell-based
[31] = tested on: A549; assay: Induction of cell cycle arrest in human A549 cells assessed as accumulation of cells at G0/G1 phase at 0.002 uM incubated for 24 hrs by PI staining based flow cytometry analysis (reference value: 66.75%); assay type: functional
[32] = target: T3, Protein cereblon/Tubulin beta-3 chain; assay: Protac activity at CRBN/beta3-tubulin in human MGC-803 cells assessed as reduction in beta3-tubulin level at 10 to 1000 nM incubated for 48 hrs by immunoblotting analysis; assay type: cell-based; settings: dose 10-1000 nM
Target sequence in this assay (Q13509 whole entry, looked up): as the sequence (Q13509 whole entry, looked up) above
Target sequence in this assay (Q96SW2 whole entry, looked up): as the sequence (Q96SW2 whole entry, looked up) above

[33] = target: T1, Protein cereblon-alpha tubulin (Homo sapiens); assay: Protac activity at CRBN/alpha-tubulin in human A549 cells assessed as reduction in alpha-tubulin level at 0.25 uM pretreated with pomalidomide for 2 hrs followed by compound addition and measured after 24 hrs by immunoblotting analysis; assay type: cell-based
[34] = target: T2, Protein cereblon/Tubulin beta (Homo sapiens); assay: Protac activity at CRBN/beta-tubulin in human A549 cells assessed as reduction in beta-tubulin level at 0.25 uM pretreated for 48 hrs followed by compound washout and measured upto 12 hrs by immunoblotting analysis; assay type: cell-based

## COc1ccc(/C=C\c2cc(OC)c(OC)c(OC)c2)cc1OC(=O)CCCNc1cccc2c1C(=O)N(C1CCC(=O)NC1=O)C2=O (stereo not given)
[1]
  Activity: Dose-Dependent Effect
[2]
  DC50: 296 nM
[3]
  Activity: 10.15%
[4]
  Activity: Active
[5]
  Activity: 16.29%
[6]
  Activity: inactive
[7]
  Activity: Active
[8]
  Activity: inactive
[9]
  IC50: 4 nM
[10]
  Activity: Active
[11]
  Activity: Active
[12]
  Activity: 37.03%
[13]
  Activity: inactive
[14]
  Activity: Active
[15]
  inhibition: Active
[16]
  Activity: Active
[17]
  Activity: Active
[18]
  IC50: 6 nM
[19]
  Activity: Tde
[20]
  Activity: inactive
[21]
  Activity: Active
[22]
  Activity: Active
[23]
  Activity: 67.61%
[24]
  Activity: 68.36%
[25]
  inhibition in vivo at 15 mg/kg: 65.8%
[26]
  Activity: Dose-Dependent Effect
  DC50: 5 nM
[27]
  Activity: 66.57%
[28]
  inhibition: Dose-Dependent Effect
[29]
  DC50: 972 nM
[30]
  Activity: Dose-Dependent Effect
[31]
  Activity: 57.32%
[32]
  Activity: Active
[33]
  Activity: inactive
[34]
  Activity: Active
